Values after ≈ are worked out from the molar mass of the structure shown.
Columns and labels:
[1] = test system: Staphylococcus aureus ATCC 6538; test: MIC, agar incorporation method; format: cell-based; details: Staphylococcus aureus, ATCC6538; S. aureus ATCC 6538; 32° C., 24 hours; read-out: Minimal Inhibitory Concentration
Description: (§1) The compounds of the present invention were tested for their ability to inhibit the growth of microorganisms by in vitro tests. Generally the in vitro tests involve growing representative microorganisms under conditions favorable to such growth and measuring the effectiveness of one or more compounds in inhibiting or destroying the growth of the microorganisms. The microorganisms used include representative bacteria, fungi and yeasts.
(§2) A representative selection of the test microorganisms were cultured in a nutrient broth, such as, for example, Eugon, commercially available from Difco Laboratories, Detroit, Michigan. Bacteria and Candida species were cultured for 24 hours at 32°-37° C. and fungi were cultured for approximately one week at 32° C. Inocula were prepared by suspending the growth or spores from a slant culture in sufficient sterile normal (0.9 percent) saline or Eugon broth, to yield cell or spore concentrations of 1,000,000 cells per milliliter. Anaerobic bacteria were cultured for 48-72 hours at 32°-37° C. in a thioglycollate containing medium, for example, Fluid Thioglycollate medium or NIH thioglycollate broth, commercially available from Difco Laboratories.
(§3) The compounds of the present invention were tested for activity against bacteria, yeasts and fungi by the agar incorporation method described below. MA 1347, 3-(dimethylaminomethyl)flavanone (disclosed in U.S. Pat. No. 3,753,985) was used as a comparative standard along with controls for each solvent system used.
(§4) A series of agar plates containing two-fold dilutions of each compound to be tested, ranging in concentration from 100 to 3.1 mcg/ml of agar medium was prepared. Aliquots of each concentration (100, 50, 25, 12.5, 6.2, and 3.1) prepared in N,N-dimethylformamide or 50 percent aqueous DMF were added to liquid Eugon agar at 48° C. (one part test solution to 100 parts agar). In some cases, tests with further dilutions to 0.125 mcg/ml were conducted. The agar medium, containing the 3-methylene flavanone or chromanone compound to be tested, was then dispensed into petri dishes and allowed to solidify. The solidified plates were kept overnight at room temperatures to dry the surface of the agar.
(§5) The agar plates were then inoculated with a drop of the standardized cell or spore suspension. Inoculated plates were incubated at 32° C. The inhibition end-point or minimum inhibitory concentration (MIC) shown in Table D represent the lowest concentration of test compound which inhibited the growth of the microorganism. Visual determination of growth inhibition was used. Bacteria and yeast end-points were determined after 24 hours incubation; molds, dermatophytes and anaerobes after 48-72 hours incubation. MIC values shown as ranges represent the extremes found in repeat assays. Virtually all such values were written plus or minus one dilution, the accepted variation of a two-fold dilution assay.

T. mentagrophytes TM-2 = test: MIC, agar incorporation method; format: cell-based; details: Trichophyton mentagrophytes, TM2, 32° C., 48-72 hours, read-out: Minimal Inhibitory Concentration
Description: as §1, §2, §3, §4, §5

A. fumigatus NRRL 165 = test: MIC, agar incorporation method; format: cell-based; details: Aspergillus fumigatus, NRRL165, 32° C., 48-72 hours, read-out: Minimal Inhibitory Concentration
Description: as §1, §2, §3, §4, §5

C. krusei VM 29B = test: MIC, agar incorporation method; format: cell-based; details: Pichia kudriavzevii, VM29B; 32° C., 24 hours; read-out: Minimal Inhibitory Concentration
Description: as §1, §2, §3, §4, §5

C. tropicalis NRRL Y1410 = test: MIC, agar incorporation method; format: cell-based; details: Candida tropicalis, NRRLY1410; 32° C., 24 hours; read-out: Minimal Inhibitory Concentration
Description: as §1, §2, §3, §4, §5

[2] = test system: Streptococcus faecalis ATCC 10541; test: MIC, agar incorporation method; format: cell-based; details: Enterococcus faecalis, ATCC10541; 32° C., 24 hours; read-out: Minimal Inhibitory Concentration
Description: as §1, §2, §3, §4, §5

T. rubrum ATCC 10218 = test: MIC, agar incorporation method; format: cell-based; details: Trichophyton rubrum, ATCC10218; 32° C., 48-72 hours; read-out: Minimal Inhibitory Concentration
Description: as §1, §2, §3, §4, §5

C. albicans NRRL Y-477 = test: MIC, agar incorporation method; format: cell-based; details: Candida albicans, NRRLY477, 32° C., 24 hours, read-out: Minimal Inhibitory Concentration
Description: as §1, §2, §3, §4, §5

T. mentagrophytes CDC = test: MIC, agar incorporation method; format: cell-based; details: Trichophyton mentagrophytes, 32° C., 48-72 hours, read-out: Minimal Inhibitory Concentration
Description: as §1, §2, §3, §4, §5

[3] = test system: Trichophyton mentagrophytes ATCC 4807; test: MIC, agar incorporation method; format: cell-based; details: ATCC4807, 32° C., 48-72 hours, read-out: Minimal Inhibitory Concentration
Description: as §1, §2, §3, §4, §5

[4] = test system: Pseudomonas aeruginosa ATCC 14502; test: MIC, agar incorporation method; format: cell-based; details: ATCC14502, 32° C., 24 hours, read-out: Minimal Inhibitory Concentration
Description: as §1, §2, §3, §4, §5

[5] = test system: Escherichia coli ATCC 8739; test: MIC, agar incorporation method; format: cell-based; details: ATCC8739, 32° C., 24 hours, read-out: Minimal Inhibitory Concentration
Description: as §1, §2, §3, §4, §5

[6] = test system: Aspergillus niger ATCC 16404; test: MIC, agar incorporation method; format: cell-based; details: ATCC16404, 32° C., 48-72 hours, read-out: Minimal Inhibitory Concentration
Description: as §1, §2, §3, §4, §5

[7] = test system: Candida albicans ATCC 10231; test: MIC, agar incorporation method; format: cell-based; details: ATCC10231, C. albicans ATCC 10231, 32° C., 24 hours, read-out: Minimal Inhibitory Concentration
Description: as §1, §2, §3, §4, §5

C. guillermondii VM 42 = test: MIC, agar incorporation method; format: cell-based; details: 32° C., 24 hours; read-out: Minimal Inhibitory Concentration
Description: as §1, §2, §3, §4, §5

[8] = test system: Microsporum gypseum ATCC 14683; test: MIC, agar incorporation method; format: cell-based; details: Nannizzia gypsea, ATCC14683, 32° C., 48-72 hours; read-out: Minimal Inhibitory Concentration
Description: as §1, §2, §3, §4, §5

S. aureus NRRL B2747 = test: MIC, agar incorporation method; format: cell-based, Staphylococcus aureus; details: Staphylococcus aureus, NRRLB2747, 32° C., 24 hours, read-out: Minimal Inhibitory Concentration
Description: as §1, §2, §3, §4, §5

A. fumigatus NRRL 163 = test: MIC, agar incorporation method; format: cell-based; details: Aspergillus fumigatus, NRRL163, NRRL 163; 32° C., 48-72 hours; read-out: Minimal Inhibitory Concentration
Description: as §1, §2, §3, §4, §5

[9] = test system: Propionobacterium acnes ATCC 6919; test: MIC, agar incorporation method, anaerobic; format: cell-based; details: 48 hours at 35° C., GasPak Anaerobic Jar, read-out: Minimal Inhibitory Concentration
Description: as §1, §2, §3, §4, §5
*Anaerobic: 48 hours incubation at 35° C. GasPak Anaerobic Jar

SMILES | MIC [1] | MIC (T. mentagrophytes TM-2) | MIC (A. fumigatus NRRL 165) | MIC (C. krusei VM 29B) | MIC (C. tropicalis NRRL Y1410) | MIC [2] | MIC (T. rubrum ATCC 10218) | MIC (C. albicans NRRL Y-477) | MIC (T. mentagrophytes CDC) | MIC [3] | MIC [4] | MIC [5] | MIC [6] | MIC [7] | MIC (C. guillermondii VM 42) | MIC [8] | MIC (S. aureus NRRL B2747) | MIC (A. fumigatus NRRL 163) | MIC [9]
C=C1C(=O)c2ccccc2OC1c1cccc(Cl)c1 (centres unmarked) [Ex. 2, 3'-chloro-3-methylene flavanone] | ≤ 3.1 µg/mL | 6.2 µg/mL (≈ 22.9 µM) | 100 µg/mL (≈ 369 µM) | 25 µg/mL (≈ 92.3 µM) | 50 µg/mL (≈ 185 µM) | 25 µg/mL (≈ 92.3 µM) | ≤ 3.1 µg/mL | 25 µg/mL (≈ 92.3 µM) | 12.5 µg/mL (≈ 46.2 µM) | 6.2 µg/mL (≈ 22.9 µM) | > 100 µg/mL | > 100 µg/mL | 100 µg/mL (≈ 369 µM) | 25 µg/mL (≈ 92.3 µM) | 50 µg/mL (≈ 185 µM) | 6.2 µg/mL (≈ 22.9 µM) | 6.2 µg/mL (≈ 22.9 µM) |  | 
C=C1C(=O)c2ccccc2OC1c1ccc(Br)cc1 (centres unmarked) [Ex. 6, 4'-bromo-3-methylene flavanone] | ≤ 3.1 µg/mL | 6.2 µg/mL (≈ 19.7 µM) | 50 µg/mL (≈ 159 µM) | 25 µg/mL (≈ 79.3 µM) | 25 µg/mL (≈ 79.3 µM) | 25 µg/mL (≈ 79.3 µM) | 6.2 µg/mL (≈ 19.7 µM) | 25 µg/mL (≈ 79.3 µM) | 12.5 µg/mL (≈ 39.7 µM) | 6.2 µg/mL (≈ 19.7 µM) | > 100 µg/mL | > 100 µg/mL | 50 µg/mL (≈ 159 µM) | 25 µg/mL (≈ 79.3 µM) | 25 µg/mL (≈ 79.3 µM) | 6.2 µg/mL (≈ 19.7 µM) | 6.2 µg/mL (≈ 19.7 µM) |  | 
C=C1C(=O)c2ccccc2OC1c1cccc(OC)c1 (centres unmarked) [Ex. 7, 3'-methoxy-3-methylene flavanone] | 25 µg/mL (≈ 93.9 µM) | 25 µg/mL (≈ 93.9 µM) | > 100 µg/mL | 100 µg/mL (≈ 376 µM) | > 100 µg/mL | 100 µg/mL (≈ 376 µM) | 12.5 µg/mL (≈ 46.9 µM) | 100 µg/mL (≈ 376 µM) | 25 µg/mL (≈ 93.9 µM) | 25 µg/mL (≈ 93.9 µM) | > 100 µg/mL | > 100 µg/mL | > 100 µg/mL | > 100 µg/mL | > 100 µg/mL | 25 µg/mL (≈ 93.9 µM) | 25 µg/mL (≈ 93.9 µM) |  | 
C=C1C(=O)c2ccccc2OC1c1ccc(OC)cc1 (centres unmarked) [Ex. 8, 4'-methoxy-3-methylene flavanone] | 12.5 µg/mL (≈ 46.9 µM) | 12.5 µg/mL (≈ 46.9 µM) |  | 50 µg/mL (≈ 188 µM) | > 100 µg/mL | > 100 µg/mL | 25 µg/mL (≈ 93.9 µM) | 100 µg/mL (≈ 376 µM) | 12.5 µg/mL (≈ 46.9 µM) | 12.5 µg/mL (≈ 46.9 µM) | > 100 µg/mL | > 100 µg/mL | 100 µg/mL (≈ 376 µM) | 100 µg/mL (≈ 376 µM) | 100 µg/mL (≈ 376 µM) | 12.5 µg/mL (≈ 46.9 µM) | 12.5 µg/mL (≈ 46.9 µM) | 50 µg/mL (≈ 188 µM) | > 100 µg/mL
C=C1C(=O)c2ccccc2OC1c1ccc(N(C)C)cc1 (centres unmarked) [Ex. 11, 4'-dimethylamino-3-methylene flavanone] | 50 µg/mL (≈ 179 µM) | 25 µg/mL (≈ 89.5 µM) | > 100 µg/mL | 100 µg/mL (≈ 358 µM) | > 100 µg/mL | > 100 µg/mL | 12.5 µg/mL (≈ 44.7 µM) | > 100 µg/mL | 25 µg/mL (≈ 89.5 µM) | 25 µg/mL (≈ 89.5 µM) | > 100 µg/mL | > 100 µg/mL | > 100 µg/mL | > 100 µg/mL | > 100 µg/mL | 25 µg/mL (≈ 89.5 µM) | 50 µg/mL (≈ 179 µM) |  | 
